According to patent publication US6469006B1, “Antiviral indoleoxoacetyl piperazine derivatives” (priority 1999, dated 2002):

tested on: single-round infectious HIV-1 reporter virus; test: microbe, parasite or virus in culture; type: cell-based; settings: Human immunodeficiency virus 1, HeLa-CD4/CCR5, 72 h, read-out: % Inhibition @ 10 μM
Description: The virus infection was quantified 3 days after infection by measuring luciferase expression from integrated viral DNA in the infected cells (Chen et al, Ref. 41).
Virus production—Human embryonic Kidney cell line, 293, propagated in Dulbecco's Modified Eagle Medium (Life Technologies, Gaithersburg, Md.) containing 10% fetal Bovine serum (FBS, Sigma, St. Louis, Mo.).
Virus infection—Human epithelial cell line, HeLa, expressing the HIV-1 receptors CD4 and CCR5 was propagated in Dulbecco's Modified Eagle Medium (Life Technologies, Gaithersburg, Md.) containing 10% fetal Bovine serum (FBS, Sigma, St. Louis, Mo.) and supplemented with 0.2 mg/ml Geneticin (Life Technologies, Gaithersburg, Md.) and 0.4 mg/ml Zeocin (Invitrogen, Carlsbad, Calif.).
Virus-Replication defective reporter virus was produced by co-transfecting human embryonic Kidney 293 cells with an HIV-1 envelope DNA expression vector and a proviral cDNA containing an envelope deletion mutation and the luciferase reporter gene inserted in place of HIV-1 nef sequences (Chen, 1994). Transfections were performed using lipofectAMINE PLUS reagent as described by the manufacturer (Life Technologies, Gaithersburg, Md.).
1. Compound was added to HeLa CD4 CCR5 cells plated in 96 well plates at a cell density of 5×10^4 cells per well in 100 ul Dulbecco's Modified Eagle Medium containing 10% fetal Bovine serum at a concentration of <20 uM.
2. 100 ul of replication defective reporter virus in Dulbecco's Modified Eagle Medium was then added to the plated cells and compound at a multiplicity of infection (MOI) of 0.01, resulting in a final volume of 200 ul per well and a final compound concentration of <10 uM.
3. Samples were harvested 72 hours after infection.
4. Viral infection was monitored by measuring luciferase expression from viral DNA in the infected cells using a luciferase reporter gene assay kit (Roche Molecular Biochemicals, Indianapolis, Ind.). Infected cell supernatants were removed and 50 ul of Dulbecco's Modified Eagle Medium (without phenol red) and 50 ul of luciferase assay reagent reconstituted as described by the manufacturer (Roche Molecular Biochemicals, Indianapolis, Ind.) was added per well. Luciferase activity was then quantified by measuring luminescence using a Wallac microbeta scintillation counter.

Row | Structure (SMILES) | inhibition at 10 µM [%]
1 | C[C@@H]1CN(C(=O)c2ccccn2)CCN1C(=O)C(=O)c1c[nH]c2c(C#N)cccc12 [Example 212] | > 98

same assay, conditions: Table 1, Examples 35-90; HeLa CD4 CCR5 cells, luciferase reporter virus, 3 days after infection

Row | Structure (SMILES) | % Inhibition @ 10 uM [%]
2 | Nc1cccc(C(=O)N2CCN(C(=O)C(=O)c3c[nH]c4ccccc34)CC2)c1 [Example 72] | 87
3 | Nc1cccc(C(=O)N2CCN(C(=O)C(=O)c3c[nH]c4c(F)ccc(F)c34)CC2)c1 [Example 73] | >98
4 | CC1CN(C(=O)c2cccc(N)c2)CCN1C(=O)C(=O)c1c[nH]c2c(F)ccc(F)c12 (centres unmarked) [Example 74] | >98
5 | CC1CN(C(=O)c2ccc(N)cc2)CCN1C(=O)C(=O)c1c[nH]c2c(F)ccc(F)c12 (centres unmarked) [Example 75] | >98
6 | CC1CN(C(=O)c2cccc(N)c2)CCN1C(=O)C(=O)c1c[nH]c2cccc(F)c12 (centres unmarked) [Example 76] | >98
7 | COc1ccc(Cl)c2[nH]cc(C(=O)C(=O)N3CCN(C(=O)c4cccc(N)c4)CC3C)c12 (centres unmarked) [Example 77] | >98
8 | COc1ccc(Cl)c2[nH]cc(C(=O)C(=O)N3CCN(C(=O)c4ccc(N)cc4)CC3C)c12 (centres unmarked) [Example 78] | >98
9 | COc1cccc2[nH]cc(C(=O)C(=O)N3CCN(C(=O)c4cccc(N)c4)CC3C)c12 (centres unmarked) [Example 79] | >98
10 | COc1ccc(F)c2c(C(=O)C(=O)N3CCN(C(=O)c4cccc(N)c4)CC3C)c[nH]c12 (centres unmarked) [Example 80] | >98
11 | COc1ccc(F)c2c(C(=O)C(=O)N3CCN(C(=O)c4ccc(N)cc4)CC3C)c[nH]c12 (centres unmarked) [Example 81] | >98
12 | CC(=O)Oc1ccccc1C(=O)N1CCN(C(=O)C(=O)c2c[nH]c3cccc(F)c23)CC1 [Example 82] | 91
13 | CC(=O)Oc1cccc(C(=O)N2CCN(C(=O)C(=O)c3c[nH]c4cccc(F)c34)CC2)c1 [Example 83] | >98
14 | CC(=O)Oc1ccc(C(=O)N2CCN(C(=O)C(=O)c3c[nH]c4cccc(F)c34)CC2)cc1 [Example 84] | 98
15 | CC(=O)Oc1ccc(C(=O)N2CCN(C(=O)C(=O)c3c[nH]c4cccc(Cl)c34)CC2)cc1 [Example 85] | 93
16 | CC(=O)Oc1cccc(C(=O)N2CCN(C(=O)C(=O)c3c[nH]c4cccc(Cl)c34)CC2)c1 [Example 86] | >98
17 | O=C(C(=O)N1CCN(C(=O)c2ccccc2O)CC1)c1c[nH]c2cccc(F)c12 [Example 87] | 86
18 | O=C(C(=O)N1CCN(C(=O)c2cccc(O)c2)CC1)c1c[nH]c2cccc(F)c12 [Example 88] | >98
19 | O=C(C(=O)N1CCN(C(=O)c2ccc(O)cc2)CC1)c1c[nH]c2cccc(F)c12 [Example 89] | 95

same assay, conditions: Table 4; HeLa CD4 CCR5 cells, luciferase reporter virus, 3 days after infection

Row | Structure (SMILES) | % Inhibition @ 10 μM [%]
20 | CC1CN(C(=O)c2ccccn2)CCN1C(=O)C(=O)c1c[nH]c2c(F)ccc(F)c12 (centres unmarked) [Entry 196] | >98
21 | Cc1ccc(F)c2c(C(=O)C(=O)N3CCN(C(=O)c4ccccn4)CC3C)c[nH]c12 (centres unmarked) [Entry 197] | 93
22 | CC1CN(C(=O)c2ccc(Br)o2)CCN1C(=O)C(=O)c1c[nH]c2c(F)ccc(F)c12 (centres unmarked) [Entry 198] | >98
23 | COc1ccc(OC)c2c(C(=O)C(=O)N3CCN(C(=O)c4ccc(Br)o4)CC3C)c[nH]c12 (centres unmarked) [Entry 199] | >98
24 | COC(=O)c1cccc2c(C(=O)C(=O)N3CCN(C(=O)c4ccc(Br)o4)CC3C)c[nH]c12 (centres unmarked) [Entry 200] | >98
25 | CC1CN(C(=O)c2ccccn2)CCN1C(=O)C(=O)c1c[nH]c2c(F)ccc(F)c12 (centres unmarked) [Entry 201] | >98
26 | CC1CN(C(=O)c2ccccn2)CCN1C(=O)C(=O)c1c[nH]c2cccc(F)c12 (centres unmarked) [Entry 202] | >98
27 | CC1CN(C(=O)c2ccccn2)CCN1C(=O)C(=O)c1c[nH]c2cccc(Cl)c12 (centres unmarked) [Entry 203] | 80
28 | CC1CN(C(=O)c2ccccn2)CCN1C(=O)C(=O)c1c[nH]c2cccc(Br)c12 (centres unmarked) [Entry 204] | 50
29 | CC1CN(C(=O)c2ccccn2)CCN1C(=O)C(=O)c1c[nH]c2ccc(F)cc12 (centres unmarked) [Entry 205] | 61
30 | CC1CN(C(=O)c2ccccn2)CCN1C(=O)C(=O)c1c[nH]c2cc(Cl)ccc12 (centres unmarked) [Entry 206] | 88
31 | CC1CN(C(=O)c2ccccn2)CCN1C(=O)C(=O)c1c[nH]c2c(F)cccc12 (centres unmarked) [Entry 207] | >98
32 | COc1cccc2c(C(=O)C(=O)N3CCN(C(=O)c4ccccn4)C[C@H]3C)c[nH]c12 [Entry 208] | >98
33 | Cc1cccc2c(C(=O)C(=O)N3CCN(C(=O)c4ccccn4)C[C@H]3C)c[nH]c12 [Entry 209] | >98
34 | CCc1cccc2c(C(=O)C(=O)N3CCN(C(=O)c4ccccn4)C[C@H]3C)c[nH]c12 [Entry 210] | 88
35 | COc1ccc(Cl)c2[nH]cc(C(=O)C(=O)N3CCN(C(=O)c4ccccn4)C[C@H]3C)c12 [Entry 211] | >98
36 | COc1cccc2[nH]cc(C(=O)C(=O)N3CCN(C(=O)c4ccccn4)C[C@H]3C)c12 [Entry 213] | >98
37 | COc1ccc(Br)c2[nH]cc(C(=O)C(=O)N3CCN(C(=O)c4ccccn4)C[C@H]3C)c12 [Entry 214] | >98
38 | COc1ccc(F)c2c(C(=O)C(=O)N3CCN(C(=O)c4ccccn4)C[C@H]3C)c[nH]c12 [Entry 215] | >98
